Measured values as given in patent US6171786A, “Methods for preventing multidrug resistance in cancer cells” (priority 1996, dated 2001).
“Also recorded” adds a separate entry of the source. Read-outs that look alike come from different tables or passages of the source.

Key:
[1] = tested on: MDR1 expression (P-glycoprotein); test: MDR1/P-glycoprotein expression in mouse hematopoietic cell lines; assay type: cell-based
Procedure: (§1) PBL were treated with 1 ng/mL TPA; H9 and K562 cells with 10 ng/mL TPA; KG1a and KG1 cells with 100 ng/mL TPA and the other cell lines with 10 ng/mL TPA.
Since PBL comprise a heterogeneous population of many different subtypes, a series of leukemia-derived clonal cells lines were tested for changes in P-glycoprotein expression after treatment with TPA.

[2] = tested on: MDR1 expression (P-glycoprotein); test: MDR1/P-glycoprotein expression in human cells treated with TPA, DOG, other agents (Rh123 accumulation, UIC2 staining, cDNA-PCR); assay type: cell-based
Procedure: KG1 cell line was maintained in Iscove's modified Dulbecco medium with 20% fetal calf serum (FCS) and 2 mM L-glutamine, 100 units/mL penicillin and 100 μg/mL streptomycin (GIBCO Laboratories, Grand Island, N.Y.).
as §1
Mouse IgG2a isotype control antibody was obtained from Sigma. For staining of PBL with UIC2 mAb or isotype control, 10^6 cells were stained at 4° C. with 10 μg of the antibody for 30 minutes and, after two washes, stained for 30 minutes with 10 μg of FITC-conjugated goat anti-mouse IgG2a antibody (Fisher Scientific, Fairlawn, N.J.), diluted 1:2 with PBS plus 2% FCS. Cells were then washed twice with ice-cold PBS plus 2% FCS, stained with PI and kept on ice until analysis. Essentially the same protocol was used for staining of other cell types except that 2 μg of the secondary antibody were used per 10^6 cells. In some experiments, phycoerythrine (PE)-conjugated goat anti-mouse IgG2a was used as the secondary antibody; no PI was added in such cases.
(§2) (Commercially-available kits (for example, from GIBCO/BRL, Gaithersburg, Md.) can be advantageously modified for making cDNA using random hexamers.) PCR is then performed using the following primers: […]
(§3) (where β2 M represents β2 microglobulin). PCR was performed for β2 M experiments under a regime consisting of 1 cycle comprising denaturation at 94° C. for 3 minutes, primer annealing at 60° C. for 30 seconds, and primer extension at 72° C. for 1 minute, followed by 19 cycles comprising denaturation at 94° C. for 30 seconds, primer annealing at 60° C. for 30 seconds, and primer extension at 72° C. for 1 minute, followed by a final cycle comprising denaturation at 94° C. for 30 seconds, primer annealing at 60° C. for 30 seconds, and primer extension at 72° C. for 5 minutes. MDR1 cDNA sequences were amplified using the identical protocol as for β2 M, but extending the amplification from 19 cycles to 25 cycles. In addition, the cDNA-PCR amplification protocol contained the following modifications: (i) Taq DNA polymerase was added to the PCR mixtures after initial heating of the samples to 94° C. (ii) The yield of the β2 -microglobulin-specific band, obtained after 22-28 cycles of PCR, was used as the primary criterion for equalizing the starting amounts of the cDNA templates in different preparations, in order to account for differential RNA degradation in cells subjected to different types of treatment. ^32 P-labeled PCR products were detected by autoradiography.
A functional assay was used to detect changes in P-glycoprotein activity in human PBL treated with different agents that induce lymphoid differentiation or activation, based on flow cytometric analysis of cellular accumulation of Rh123, which is a P-glycoprotein-transported fluorescent mitochondrial dye. In this assay, cells expressing little or no P-glycoprotein stain brightly with Rh123, whereas cells with higher levels of P-glycoprotein activity appear Rh123-dull. […] Since the best-known cellular effect of TPA is the stimulation of PKC, DOG (a cell-permeable diacylglycerol and a physiological stimulant of PKC) was also tested to determine its effects on Rh123 accumulation in PBL.

PC-PLC = conditions: Wiegmann et al., 1994; cited from earlier work
MDR1 expression [3] = test: Inhibition of AraC-induced MDR1 expression by phospholipase C inhibitors (RT-PCR); assay type: cell-based, human; conditions: up to 100 μg/mL D609
Procedure: The inhibitor was added 45 min. prior to the addition of Ara C. Negative control cultures were incubated as above without the addition of either AraC or U73122.
The specificity of phospholipase C-targeted inhibition of MDR1 induction by cytotoxic drugs was determined in a comparative experiment using a known inhibitor of […] phospholipase C (PC-PLC).

[4] = tested on: MDR1 expression (P-glycoprotein); test: Induction of MDR1 expression by cytotoxic drugs (dye efflux, UIC2, cDNA-PCR); assay type: cell-based, human
Procedure: as §2, §3
In particular PKC is activated by treatment with Ara-C. Therefore, experiments were performed to test whether Ara-C, which is not transported by P-glycoprotein, would have any effect on P-glycoprotein function in K562 leukemia cells.
(§4) Also assayed was whether drug-induced MDR1 expression was maintained after cytotoxic drug treatment. […] At different times, MDR1 expression in the surviving cells was analyzed by dye efflux and immunofluorescence labeling with UIC2 (FIG. 3C) or by cDNA-PCR (FIG. 4E).

K562 cells = tested on: K562 cells
Procedure: FIG. 6A. Growth inhibition by vinblastine in untreated and Ara-C (ARA)- or Adriamycin (ADR)-treated cells. Cells were treated as in FIG. 3C and grown in the absence of drugs for six weeks. Vinblastine inhibition assay was carried out for 10 days.
FIG. 6B. Growth inhibition by vinblastine in untreated cells and Rh123-dull and Rh123-bright populations of Ara-C treated cells. […] One week after sorting, vinblastine inhibition assay was carried out for 7 days.
Cells were plated in duplicate in 96-well microtiter plates at 3,000 cells per well, and allowed to grow in increasing concentrations of different drugs.
as §4

tumor [5] = conditions: nude mice, cited from earlier work
MRP expression = test: Inhibition of MRP mRNA expression in H-9 cells (cDNA-PCR); assay type: cell-based, human; conditions: 100 nM
Procedure: Cells were plated in 6-well Falcon tissue culture plates at 3,300 cells per well, and incubated in the appropriate concentrations of drugs. Each of the protein kinase inhibitors to be tested were added at their appropriate final concentrations, and the cells then incubated for 10 hours at 37° C. under an atmosphere of 5% CO2.
PCR was performed using the following primers: […]
(where β2 M represents β2 microglobulin). PCR was performed for β2 M experiments under a regime consisting of 1 cycle comprising denaturation at 94° C. for 3 minutes, primer annealing at 60° C. for 30 seconds, and primer extension at 72° C. for 1 minute, followed by 19 cycles comprising denaturation at 94° C. for 30 seconds, primer annealing at 60° C. for 30 seconds, and primer extension at 72° C. for 1 minute, followed by a final cycle comprising denaturation at 94° C. for 30 seconds, primer annealing at 60° C. for 30 seconds, and primer extension at 72° C. for 5 minutes.
H-9 cells were used to analyze the effect of various protein kinase inhibitors on the expression of the multidrug resistance associated protein MRP (Grant et al., ibid.).

MDR1 expression [6] = test: Inhibition of TPA- or DOG-induced MDR1 expression; assay type: cell-based, human; conditions: staurosporine 30 nM
Procedure: as §1
(§5) Cells were plated in 6-well Falcon tissue culture plates at 3,300 cells per well, and incubated in the appropriate concentrations of drugs. Each of the protein kinase inhibitors to be tested were added at the appropriate final concentration 45 minutes prior to MDR1 induction by the addition of Ara-C or TPA, with the exception of herbimycin A, which was added 12 hours prior to Ara-C or TPA, and tyrphostins A25 and B46, which were each added 16 hours prior to MDR1 induction by the addition of Ara-C or TPA. Cells were incubated overnight (TPA) or for 10 hours (Ara-C) at 37° C./ 5% CO2 after the addition of the MDR1 inducing agents before harvesting for cDNA-PCR analysis.

MDR1 expression [7] = test: Inhibition of cytotoxic drug-induced MDR1 expression by protein kinase inhibitors (cDNA-PCR)
Procedure: as §5
In addition, the analysis of certain drugs imposed added requirements. For experiments using calphostin C, cells were incubated under direct white light illumination. For experiments using D,L-threo-sphingosine, the cell culture medium was pre-treated with the appropriate concentration of the drug for one hour at 37° C. with continuous gentle mixing. After this pretreatment, cells were resuspended in media supplemented with drug and incubated for 45 minutes as described above.
To further evaluate the capacity of protein kinase inhibitors to suppress MDR1 induction by cytotoxic drugs and PKC agonists, H-9 human T-cell leukemia cells were used in cDNA-PCR assays to examine induced MDR1 mRNA expression levels in the presence of protein kinase inhibitors.

MDR1 expression [8] = conditions: cited from earlier work
PKC = conditions: in words; cited from earlier work
MDR1 expression [9] = test: Inhibition of cytotoxic drug-induced MDR1 expression by cytoplasmic calcium antagonists and calmodulin inhibitors; assay type: cell-based, human; conditions: H9; 200 μM TMB-8
protein kinases = conditions: Pelosin et al., 1990; cited from earlier work
tumor [10] = conditions: cited from earlier work

CCCCCCCCCCCCCC(=O)O[C@@H]1[C@@H](C)[C@@]2(O)[C@@H](C=C(CO)C[C@]3(O)C(=O)C(C)=C[C@@H]23)[C@@H]2C(C)(C)[C@]12OC(C)=O [TPA, 12-o-tetradecanoylphorbol-13-acetate]
P-glycoprotein expression after exposure ([1]; and LBRM 33 lymphoma): large increase in their P-glycoprotein expression
increase of MDR1 expression after treatment ([2]; EJ bladder carcinoma cells): increase of MDR1 expression
induction of MDR1 mRNA and P-glycoprotein ([2]; H9 cells): efficiently induced readily detectable levels of MDR1 expression
P-glycoprotein expression after exposure ([2]; KG1 and KG1a cells (P-glycoprotein positive)): large increase in their P-glycoprotein expression
increase of MDR1 expression after treatment ([2]; MCF-7 breast carcinoma cells): increase of MDR1 expression
levels of P-glycoprotein on the cell surface (UIC2) ([2]; human PBL): markedly increased the levels of P-glycoprotein on the cell surface
MDR1 gene expression ([2]; normal human PBL and leukemia/solid tumor cell lines): increase MDR1 gene expression

S=C(S)OC1CC2CC1C1CCCC21 (stereo not shown) [D609, tricyclodecan-9-yl-xanthogenate potassium]
concentration known to inhibit PC-PLC (PC-PLC): 100 µg/mL
inhibition of AraC-induced expression of MDR1 (MDR1 expression [3]): without an effect; also recorded: incapable of inhibiting AraC-induced expression of MDR1

CC[C@]1(O)C[C@@H]2CN(CCc3c([nH]c4ccccc34)[C@@](C(=O)OC)(c3cc4c(cc3OC)N(C)[C@H]3[C@@](O)(C(=O)OC)[C@H](OC(C)=O)[C@]5(CC)C=CCN6CC[C@]43[C@@H]65)C2)C1 [vinblastine]
MDR1 induction [4]: MDR1 induction, both at the mRNA and at the protein levels, was observed
MDR1 mRNA expression [4]: induce MDR1 mRNA expression
Rh123 or DiOC2(3) efflux by treated cells [4]: 3-10%
increase in resistance (K562 cells): 2-3 fold
increase in the ID10 value (K562 cells): 2-3 fold

CO[C@@H]1[C@H](N(C)C(=O)c2ccccc2)C[C@H]2O[C@]1(C)n1c3ccccc3c3c4c(c5c6ccccc6n2c5c31)C(=O)NC4 [CGP 41 251]
dose showing anti-tumor effect relative to MTD (tumor [5]; Meyer et al., 1989): anti-tumor effect at one-tenth of their maximum tolerated doses

CN[C@@H]1C[C@H]2O[C@@](C)([C@@H]1OC)n1c3ccccc3c3c4c(c5c6ccccc6n2c5c31)C(=O)NC4 [staurosporine]
MRP expression (MRP expression): capable of inhibiting MRP expression; also recorded: strongly inhibited
P-glycoprotein expression, compound alone ([1]; mouse EL4 and LBRM 33 (P-glycoprotein positive)): significant increase in P-glycoprotein expression
inhibition of DOG (diacylglycerol)-induced MDR1 expression (MDR1 expression [6]; H9 cells / P-glycoprotein-negative cells): completely abolished MDR1 induction; also recorded: prevent MDR1 induction
inhibition of TPA-induced MDR1 expression (MDR1 expression [6]; H9 cells): completely abolished MDR1 induction; also recorded: completely inhibited TPA-induced MDR1 expression; also recorded: prevent MDR1 induction
prevention of MDR1 induction by chemotherapeutic drugs (MDR1 expression [7]): prevent MDR1 induction
inhibition of MDR1 induction by cytotoxic drugs (MDR1 expression [7]; concentration not stated): capable of inhibiting MDR1 induction by cytotoxic drugs
P-glycoprotein expression, compound alone ([2]; KG1, KG1a (P-glycoprotein positive)): significant increase in P-glycoprotein expression
induction of MDR1 expression, compound alone ([2]; P-glycoprotein-negative H9 cells): did not induce MDR1 expression
P-glycoprotein expression ([2]; some P-glycoprotein-positive cell lines (human; mouse lines also used)): significantly increased P-glycoprotein expression

O=c1c(O)c(-c2ccc(O)c(O)c2)oc2cc(O)cc(O)c12 [quercetin]
effect on anti-tumor effect of cisplatin (tumor [5]; i.p. 20 mg/kg, Grunicke et al.): potentiate the anti-tumor effect of cisplatin
effect on arsenite-induced increase in MDR1 expression (MDR1 expression [8]): prevent an increase in MDR1 expression
PKC inhibition (PKC): inhibition of PKC activity

8-(dimethylamino)octyl-3,4,5-trimethoxybenzoate hydrochloride [TMB-8]
inhibition of AraC-induced MDR1 gene expression (MDR1 expression [9]): completely abrogate the ability of AraC to induce MDR1 gene expression

N=C(N)NCCNS(=O)(=O)c1cccc2cnccc12 [HA1004]
inhibition of MDR1 induction by cytotoxic drugs (MDR1 expression [7]): totally ineffective
PKC inhibition (PKC): inactive against PKC

CC1CN(S(=O)(=O)c2cccc3cnccc23)CCN1 (stereo not shown) [Iso-H7]
inhibition of Ara-C induced MDR1 expression (MDR1 expression [7]; Iso-H7, H-9 cells): No significant inhibition
weaker effect on protein kinases than H7 (protein kinases): 10 fold

CCN(CC)CCN1C(=O)c2c(c3c4cccc(Cl)c4n([C@@H]4O[C@H](CO)[C@@H](OC)[C@H](O)[C@H]4O)c3c3[nH]c4c(Cl)cccc4c23)C1=O [BMY 27557, 8-N-(diethylaminoethyl) rebeccamycin]
optimal total i.p. dose (tumor [10]; nine injections at 12 mg/kg/injection): 108 mg/kg
optimal single i.p. dose (tumor [10]; single dose): 64 mg/kg
